# Experiments:
# [1] = system: HT-29 cells (colorectal adenocarcinoma); test: Inhibition of cancer cell proliferation, HT-29 (CellTiterGlo, 72 hours); type: cell-based; conditions: Homo sapiens
# How it was run: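 Proliferation over 72 h at 37° C was read by CellTiterGlo luminescence, translated to cell counts with a cell-density standard curve (390–50,000 cells). Compound added as 3-fold dilutions from a 5,000 nM two-fold stock to 3000 seeded HT-29 cells; GI50 from percent inhibition relative to untreated wells.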
# [2] = system: ERK1/2 phosphorylation of p90RSK in HT29 cells; test: pRSK MSD Assay in HT29 cells; type: cell-based; conditions: Homo sapiens, HT-29, read-out: ERK1/ERK2 PRSK MSD HT29 EC50
# How it was run: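 Phospho-RSK level, read by electrochemiluminescence on RSK-antibody-coated MSD plates with a phospho-RSK/Sulfo-tag detection pair, reports cellular ERK1/2 activity. HT29 cells, kept overnight in 0.1% FBS medium, were exposed to compound for 120 min at 37° C before lysis.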
# [3] = biological target: T1, MEK1 activated ERK1 (Homo sapiens, UniProt P27361); test: Omnia continuous-read kinase assay for potency against MEK1 activated ERK1; type: biochemical; conditions: MEK1 activated ERK1, ATP at KM; read-out: ERK1 Omnia WT ATP KM IC50
# T1 construct: purchased Millipore (Billerica, Mass.) 14-439-K
# How it was run: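 Apparent IC50 came from initial reaction slopes (RFU vs time) plotted against log inhibitor with a variable-slope fit. Reactions were started with ERK1 (4 nM final) added to 50 μM ATP, roughly at its appKM, and 10 μM Sox-conjugated ST17 peptide in 20 mM Tris pH 7.5, 5 mM MgCl2. Fluorescence was monitored every 71 seconds.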
# T1 sequence (P27361 whole entry): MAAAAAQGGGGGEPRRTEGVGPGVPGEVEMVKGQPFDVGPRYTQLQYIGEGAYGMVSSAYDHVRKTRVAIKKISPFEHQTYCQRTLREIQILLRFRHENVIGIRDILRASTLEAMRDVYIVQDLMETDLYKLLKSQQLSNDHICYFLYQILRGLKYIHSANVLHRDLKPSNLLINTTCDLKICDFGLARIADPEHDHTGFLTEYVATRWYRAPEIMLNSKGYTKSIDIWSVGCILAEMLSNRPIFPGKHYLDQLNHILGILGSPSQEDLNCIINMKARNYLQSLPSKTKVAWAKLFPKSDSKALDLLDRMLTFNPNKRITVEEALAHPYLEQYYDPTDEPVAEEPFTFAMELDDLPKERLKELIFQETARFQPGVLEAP
SMILES,GI50 [1] [nM],EC50 [2] [nM],IC50 [3] [nM]
"C=CC(=O)Nc1ccccc1Nc1nc(Nc2cc(OC)ccc2C)ncc1C(F)(F)F [Compound I-340, N-(2-((2-((5-methoxy-2-methylphenyl)amino)-5-(trifluoromethyl)pyrimidin-4-yl)amino)phenyl)acrylamide]",101 to 500,< 100,101 to 500
"C=CC(=O)Nc1cc(C(F)(F)F)ccc1Nc1nc(Nc2cc(OC)ncc2C)ncc1C(F)(F)F [Compound I-323, N-(2-((2-((2-methoxy-5-methylpyridin-4-yl)amino)-5-(trifluoromethyl)pyrimidin-4-yl)amino)-5-(trifluoromethyl)phenyl)acrylamide]",101 to 500,< 100,101 to 500
"C=CC(=O)Nc1cc(OC)ccc1Nc1nc(Nc2cc(Cl)nc(OC)c2)ncc1Cl [Compound I-245, N-(2-((5-chloro-2-((2-chloro-6-methoxypyridin-4-yl)amino)pyrimidin-4-yl)amino)-5-methoxyphenyl)acrylamide]",101 to 500,< 100,101 to 500
"C=CS(=O)(=O)Nc1cc(C)ccc1Nc1nc(Nc2cc(OC)ncc2C)ncc1C(F)(F)F [Compound I-333, N-(2-((2-((2-methoxy-5-methylpyridin-4-yl)amino)-5-(trifluoromethyl)pyrimidin-4-yl)amino)-5-methylphenyl)ethenesulfonamide]",> 1000,101 to 500,101 to 500
"C=CC(=O)Nc1cc(C)ccc1Nc1nc(Nc2cc(OC)nc(N(C)CCOC)c2)ncc1C(F)(F)F [Compound I-336, N-(2-((2-((2-methoxy-6-((2-methoxyethyl)(methyl)amino)pyridin-4-yl)amino)-5-(trifluoromethyl)pyrimidin-4-yl)amino)-5-methylphenyl)acrylamide]",< 100,< 100,501 to 999
"C=CC(=O)Nc1cc(C)ccc1Nc1nc(Nc2cc(C(N)=O)ccn2)ncc1Cl [Compound I-238, 2-((4-((2-acrylamido-4-methylphenyl)amino)-5-chloropyrimidin-2-yl)amino)isonicotinamide]",101 to 500,< 100,101 to 500
"C=CC(=O)Nc1cc(C)ccc1Nc1nc(Nc2cc(NC3CC3)nc(OC)c2)ncc1C(F)(F)F [Compound I-337, N-(2-((2-((2-(cyclopropylamino)-6-methoxypyridin-4-yl)amino)-5-(trifluoromethyl)pyrimidin-4-yl)amino)-5-methylphenyl)acrylamide]",< 100,< 100,501 to 999
"C=CC(=O)Nc1cc(C)ccc1Nc1nc(Nc2cc(OC)nc(N3CCOCC3)c2)ncc1C(F)(F)F [Compound I-94, N-(2-((2-((2-Methoxy-6-morpholinopyridin-4-yl)amino)-5-(trifluoromethyl)pyrimidin-4-yl)amino)-5-methylphenyl)acrylamide]",< 100,< 100,101 to 500
"C=CC(=O)Nc1ccccc1Nc1nc(Nc2cc(OC)nc(N3CCCCC3)c2)ncc1C(F)(F)F [Compound I-282, N-(2-((2-((2-Methoxy-6-(piperidin-1-yl)pyridin-4-yl)amino)-5-(trifluoromethyl)pyrimidin-4-yl)amino)phenyl)acrylamide]",< 100,101 to 500,101 to 500
"C=CC(=O)Nc1cc(C)ccc1Nc1nc(Nc2cc(OC)nc(N3CCN(CC)CC3)c2)ncc1C(F)(F)F [Compound I-89, N-(2-((2-((2-(4-Ethylpiperazin-1-yl)-6-methoxypyridin-4-yl)amino)-5-(trifluoromethyl)pyrimidin-4-yl)amino)-5-methylphenyl)acrylamide]",< 100,101 to 500,101 to 500
"C=CC(=O)Nc1ccccc1Nc1nc(Nc2cc(Cl)nc(OC)c2)ncc1Cl [Compound I-246, N-(2-((5-chloro-2-((2-chloro-6-methoxypyridin-4-yl)amino)pyrimidin-4-yl)amino)phenyl)acrylamide]",< 100,< 100,101 to 500
"C=CC(=O)Nc1ccccc1Nc1nc(Nc2cc(OC)cc(OC)c2)ncc1C(F)(F)F [Compound I-338, N-(2-((2-((3,5-dimethoxyphenyl)amino)-5-(trifluoromethyl)pyrimidin-4-yl)amino)phenyl)acrylamide]",< 100,< 100,101 to 500
"C=CC(=O)Nc1cc(C)ccc1Nc1nc(Nc2cc(OC)nc(N3CCN(C)CC3)c2)ncc1C(F)(F)F [Compound I-325, N-(2-((2-((2-methoxy-6-(4-methylpiperazin-1-yl)pyridin-4-yl)amino)-5-(trifluoromethyl)pyrimidin-4-yl)amino)-5-methylphenyl)acrylamide]",< 100,101 to 500,101 to 500

# The remaining lines, values ahead:
GI50 [1] [nM],EC50 [2] [nM],IC50 [3] [nM],SMILES
101 to 500,101 to 500,101 to 500,"C=CC(=O)Nc1ccccc1Nc1nc(N[C@H]2CCN(S(C)(=O)=O)C2)ncc1C(F)(F)F [Compound I-58, (S)—N-(2-((2-((1-(Methylsulfonyl)pyrrolidin-3-yl)amino)-5-(trifluoromethyl)pyrimidin-4-yl)amino)phenyl)acrylamide]"
101 to 500,> 1000,501 to 999,"C=CC(=O)Nc1ccccc1Nc1nc(N[C@@H]2CCN(C(C)=O)C2)ncc1C(F)(F)F [Compound I-60, (R)—N-(2-((2-((1-Acetylpyrrolidin-3-yl)amino)-5-(trifluoromethyl)pyrimidin-4-yl)amino)phenyl)acrylamide]"
101 to 500,> 1000,501 to 999,"C=CC(=O)Nc1ccccc1Nc1nc(N[C@H]2CCN(C(=O)OC)C2)ncc1C(F)(F)F [Compound I-59, (S)-methyl 3-((4-((2-Acrylamidophenyl)amino)-5-(trifluoromethyl)pyrimidin-2-yl)amino)pyrrolidine-1-carboxylate]"
101 to 500,101 to 500,101 to 500,"C=CC(=O)Nc1ccccc1Nc1nc(N[C@H]2CCN(C(=O)CO)C2)ncc1C(F)(F)F [Compound I-57, (S)—N-(2-((2-((1-(2-Hydroxyacetyl)pyrrolidin-3-yl)amino)-5-(trifluoromethyl)pyrimidin-4-yl)amino)phenyl)acrylamide]"
< 100,< 100,< 100,"C=CC(=O)Nc1ccccc1Nc1nc(N[C@H]2CCCN(C(C)=O)C2)ncc1Cl [Compound I-115, (S)—N-(2-((2-((1-acetylpiperidin-3-yl)amino)-5-chloropyrimidin-4-yl)amino)phenyl)acrylamide]"
101 to 500,101 to 500,101 to 500,"C=CC(=O)Nc1ccccc1Nc1nc(N[C@H]2CCN(C(C)=O)C2)ncc1C(F)(F)F [Compound I-56, (S)—N-(2-((2-((1-Acetylpyrrolidin-3-yl)amino)-5-(trifluoromethyl)pyrimidin-4-yl)amino)phenyl)acrylamide]"
